Laboratory results taken from patent US8680012B2, “4-phenyl-pyrane-3,5-diones,4-phenyl-thiopyrane-3,6-diones and cyclohexanetriones as novel herbicides” (Syngenta Crop Protection LLC, priority 2006, dated 2014).

Key:
Format in all cases: in vivo
[1] = tested on: Alopecurus myosuroides (ALOMY); test: Example B pre-emergence herbicidal activity, glasshouse pot test; settings: 312 h, evaluated after 13 days, read-out: Pre-emergence activity ALOMY (100=total damage to plant; 0=no damage to plant); for pest or weed control at 1000 g/ha: rate 1000 g/ha; for pest or weed control at 250 g/ha: rate 250 g/ha
Method in brief: (§1)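 Visual injury score (0 none to 100 total plant damage) recorded 13 days after spraying. Plants received an aqueous spray of compound in 50:50 acetone/water with 0.5% Tween 20, either one day after sowing or after eight days of cultivation, in pots kept under controlled glasshouse conditions.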

[2] = tested on: Amaranthus retroflexus (AMARE); test: as above; settings: 312 h, evaluated after 13 days, read-out: Pre-emergence activity AMARE (100=total damage to plant; 0=no damage to plant); for pest or weed control at 1000 g/ha: rate 1000 g/ha; for pest or weed control at 250 g/ha: rate 250 g/ha
Method in brief: as §1

Avena fatua (AVEFA) [3] = test: as above; settings: 312 h, evaluated after 13 days, read-out: Pre-emergence activity AVEFA (100=total damage to plant; 0=no damage to plant); for pest or weed control at 1000 g/ha: rate 1000 g/ha; for pest or weed control at 250 g/ha: rate 250 g/ha
Method in brief: as §1

[4] = tested on: Echinochloa crus-galli (ECHCG); test: as above; settings: 312 h, evaluated after 13 days, read-out: Pre-emergence activity ECHCG (100=total damage to plant; 0=no damage to plant); for pest or weed control at 1000 g/ha: rate 1000 g/ha; for pest or weed control at 250 g/ha: rate 250 g/ha
Method in brief: as §1

Setaria faberi (SETFA) [5] = test: as above; settings: 312 h, evaluated after 13 days, read-out: Pre-emergence activity SETFA (100=total damage to plant; 0=no damage to plant); for pest or weed control at 1000 g/ha: rate 1000 g/ha; for pest or weed control at 250 g/ha: rate 250 g/ha
Method in brief: as §1

Solanum nigrum (SOLNI) [6] = test: as above; settings: 312 h, evaluated after 13 days, read-out: Pre-emergence activity SOLNI (100=total damage to plant; 0=no damage to plant); for pest or weed control at 1000 g/ha: rate 1000 g/ha; for pest or weed control at 250 g/ha: rate 250 g/ha
Method in brief: as §1

[7] = tested on: Alopecurus myosuroides (ALOMY); test: Example B post-emergence herbicidal activity, glasshouse pot test; settings: 312 h, evaluated after 13 days, read-out: Post-emergence activity ALOMY (100=total damage to plant; 0=no damage to plant); for pest or weed control at 1000 g/ha: rate 1000 g/ha; for pest or weed control at 250 g/ha: rate 250 g/ha
Method in brief: as §1

[8] = tested on: Amaranthus retroflexus (AMARE); test: as above; settings: 312 h, evaluated after 13 days, read-out: Post-emergence activity AMARE (100=total damage to plant; 0=no damage to plant); for pest or weed control at 1000 g/ha: rate 1000 g/ha; for pest or weed control at 250 g/ha: rate 250 g/ha
Method in brief: as §1

Avena fatua (AVEFA) [9] = test: as above; settings: 312 h, evaluated after 13 days, read-out: Post-emergence activity AVEFA (100=total damage to plant; 0=no damage to plant); for pest or weed control at 1000 g/ha: rate 1000 g/ha; for pest or weed control at 250 g/ha: rate 250 g/ha
Method in brief: as §1

[10] = tested on: Echinochloa crus-galli (ECHCG); test: as above; settings: 312 h, evaluated after 13 days, read-out: Post-emergence activity ECHCG (100=total damage to plant; 0=no damage to plant); for pest or weed control at 1000 g/ha: rate 1000 g/ha; for pest or weed control at 250 g/ha: rate 250 g/ha
Method in brief: as §1

Setaria faberi (SETFA) [11] = test: as above; settings: 312 h, evaluated after 13 days, read-out: Post-emergence activity SETFA (100=total damage to plant; 0=no damage to plant); for pest or weed control at 1000 g/ha: rate 1000 g/ha; for pest or weed control at 250 g/ha: rate 250 g/ha
Method in brief: as §1

Solanum nigrum (SOLNI) [12] = test: as above; settings: 312 h, evaluated after 13 days, read-out: Post-emergence activity SOLNI (100=total damage to plant; 0=no damage to plant); for pest or weed control at 1000 g/ha: rate 1000 g/ha; for pest or weed control at 250 g/ha: rate 250 g/ha
Method in brief: as §1

SMILES | pest or weed control at 1000 g/ha [1] [%] | pest or weed control at 1000 g/ha [2] [%] | pest or weed control at 1000 g/ha (Avena fatua (AVEFA) [3]) [%] | pest or weed control at 1000 g/ha [4] [%] | pest or weed control at 1000 g/ha (Setaria faberi (SETFA) [5]) [%] | pest or weed control at 1000 g/ha (Solanum nigrum (SOLNI) [6]) [%] | pest or weed control at 1000 g/ha [7] [%] | pest or weed control at 1000 g/ha [8] [%] | pest or weed control at 1000 g/ha (Avena fatua (AVEFA) [9]) [%] | pest or weed control at 1000 g/ha [10] [%] | pest or weed control at 250 g/ha [1] [%] | pest or weed control at 250 g/ha [2] [%] | pest or weed control at 250 g/ha (Avena fatua (AVEFA) [3]) [%] | pest or weed control at 250 g/ha [4] [%] | pest or weed control at 250 g/ha (Setaria faberi (SETFA) [5]) [%] | pest or weed control at 250 g/ha [7] [%] | pest or weed control at 250 g/ha [8] [%] | pest or weed control at 250 g/ha (Avena fatua (AVEFA) [9]) [%] | pest or weed control at 250 g/ha [10] [%] | pest or weed control at 250 g/ha (Setaria faberi (SETFA) [11]) [%] | further results
Cc1ccc(-c2ccc(C#N)cc2)cc1C1=C(O)C(C)(C)OC(C)(C)C1=O [Compound A-20] | 90 | 0 | 60 | 100 | 100 | 40 | 90 | 20 | 90 | 100 |  |  |  |  |  |  |  |  |  |  | pest or weed control at 1000 g/ha (Setaria faberi (SETFA) [11]): 100%; pest or weed control at 1000 g/ha (Solanum nigrum (SOLNI) [12]): 80%
CCc1ccc(-c2ccc(Cl)cc2F)cc1C1=C(O)C(C)(C)C(=O)C(C)(C)C1=O [Compound B-31] |  |  |  |  |  |  |  |  |  |  | 0 | 0 | 20 | 50 | 50 | 10 | 0 | 0 | 90 | 90 | pest or weed control at 250 g/ha (Solanum nigrum (SOLNI) [6]): 0%; pest or weed control at 250 g/ha (Solanum nigrum (SOLNI) [12]): 0%
CCc1ccc(-c2ccc(Cl)nc2Cl)cc1C1=C(O)C(C)(C)C(=O)C(C)(C)C1=O [Compound B-29] |  |  |  |  |  |  |  |  |  |  | 0 | 0 | 0 | 20 | 30 | 30 | 20 | 0 | 100 | 80 | pest or weed control at 250 g/ha (Solanum nigrum (SOLNI) [6]): 0%; pest or weed control at 250 g/ha (Solanum nigrum (SOLNI) [12]): 30%
Cc1ccc(-c2ccc(Cl)cc2)cc1C1=C(O)[C@@]2(C)CC[C@H](O2)C1=O (single isomer, unassigned) [Compound A-30] | 80 | 0 | 70 | 100 | 100 | 0 | 90 | 70 | 100 | 100 |  |  |  |  |  |  |  |  |  |  | pest or weed control at 1000 g/ha (Setaria faberi (SETFA) [11]): 100%; pest or weed control at 1000 g/ha (Solanum nigrum (SOLNI) [12]): 70%
CCc1ccc(-c2ccc(Cl)cc2)cc1C1=C(OC(=O)C(C)OC)C(C)(C)OC(C)(C)C1=O [Compound D-19] | 70 | 0 | 20 | 100 | 100 | 0 | 90 | 0 | 80 | 100 |  |  |  |  |  |  |  |  |  |  | pest or weed control at 1000 g/ha (Setaria faberi (SETFA) [11]): 100%; pest or weed control at 1000 g/ha (Solanum nigrum (SOLNI) [12]): 0%
CCc1ccc(-c2ccc(Cl)c(C(F)(F)F)c2)cc1C1=C(O)C(C)(C)C(=O)C(C)(C)C1=O [Compound B-10] |  |  |  |  |  |  |  |  |  |  | 0 | 0 | 0 | 30 | 50 | 40 | 40 | 20 | 90 | 80 | pest or weed control at 250 g/ha (Solanum nigrum (SOLNI) [6]): 20%; pest or weed control at 250 g/ha (Solanum nigrum (SOLNI) [12]): 0%
Cc1ccc(-c2cccc(C(F)(F)F)c2)cc1C1=C(O)C(C)(C)OC(C)(C)C1=O [Compound A-15] | 50 | 100 | 50 | 100 | 50 | 100 | 10 | 90 | 20 | 50 |  |  |  |  |  |  |  |  |  |  | pest or weed control at 1000 g/ha (Setaria faberi (SETFA) [11]): 10%; pest or weed control at 1000 g/ha (Solanum nigrum (SOLNI) [12]): 10%
CCc1ccc(-c2c(Cl)cc(Cl)cc2Cl)cc1C1=C(O)C(C)(C)OC(C)(C)C1=O [Compound A-74] |  |  |  |  |  |  |  |  |  |  | 20 | 10 | 0 | 80 | 50 | 0 | 70 | 0 | 90 | 90 | 
CCc1ccc(-c2ccc(Cl)c(F)c2)cc1C1=C(O)[C@]2(C)O[C@@H](CC2COC)C1=O (some centres unmarked) [Compound A-127] |  |  |  |  |  |  |  |  |  |  | 30 | 0 | 70 | 50 | 90 | 80 | 0 | 40 | 100 | 100 | 
CCc1ccc(-c2ccc(Cl)c(Cl)c2)cc1C1=C(O)[C@@]2(C)CC[C@H](O2)C1=O (single isomer, unassigned) [Compound A-123] |  |  |  |  |  |  |  |  |  |  | 50 | 0 | 80 | 70 | 100 | 90 | 0 | 70 | 100 | 100 | 
CCc1ccc(-c2ccc(C(F)F)cc2)cc1C1=C(O)C(C)(C)OC(C)(C)C1=O [Compound A-147] |  |  |  |  |  |  |  |  |  |  | 100 | 0 | 60 | 100 | 70 | 100 | 0 | 90 | 100 | 70 | 
COc1ccc(-c2ccc(Cl)c(F)c2)cc1C1=C(O)C(C)(C)OC(C)(C)C1=O [Compound A-96] |  |  |  |  |  |  |  |  |  |  | 0 | 0 | 0 | 0 | 0 | 50 | 0 | 30 | 100 | 90 | 
